Measurements: the supplement of paper PMC10307832

Assays:
Experiment in all cases: relative viability (nuclei count vs DMSO), 5 days (fraction); higher = more cells survive
Vandetanib + Pictilisib = compound: COc1cc2/c(=N/c3ccc(Br)cc3F)nc[nH]c2cc1OCC1CCN(C)CC1 [Vandetanib] + CS(=O)(=O)N1CCN(Cc2cc3nc(-c4cccc5[nH]ncc45)nc(N4CCOCC4)c3s2)CC1 [Pictilisib] (partner 1 µM)
Procedure, shortened: (§1)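 Lung cancer cell lines in 1536-well plates were dosed by pin tool the day after seeding, either with one drug alone or with a fixed anchor-drug dose plus five library-drug doses (not always all listed) in √10 steps. After 5 days, cells were fixed and their nuclei stained in one step (final 0.05% Triton X-100, 1% formaldehyde, 1 ug/ml Hoechst), then counted on 4× images. Relative viability is the nuclei count in treated wells divided by that in vehicle wells. Values are medians of duplicate plates.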

CUDC-101 + Pictilisib = compound: C#Cc1cccc(Nc2ncnc3cc(OC)c(OCCCCCCC(=O)NO)cc23)c1 [CUDC-101] + CS(=O)(=O)N1CCN(Cc2cc3nc(-c4cccc5[nH]ncc45)nc(N4CCOCC4)c3s2)CC1 [Pictilisib] (partner 1 µM)
Procedure, shortened: as §1

[1] = compound: C1=CC=C2C(=C1)N=C(S2)C(C#N)C3=NC(=NC=C3)NCCC4=CN=CC=C4 + Nc1ncn([C@H]2C[C@H](O)[C@@H](CO)O2)c(=O)n1 [Decitabine] (partner 2 µM)
Procedure, shortened: as §1

CUDC-101 + Trametinib = compound: C#Cc1cccc(Nc2ncnc3cc(OC)c(OCCCCCCC(=O)NO)cc23)c1 [CUDC-101] + CC(=O)Nc1cccc(-n2c(=O)n(C3CC3)c(=O)c3c(Nc4ccc(I)cc4F)n(C)c(=O)c(C)c32)c1 [Trametinib] (partner 0.02 µM)
Procedure, shortened: as §1

Cell Line | relative viability (Vandetanib + Pictilisib; first compound 0.02 µM) | relative viability (Vandetanib + Pictilisib; first compound 0.06325 µM) | relative viability (Vandetanib + Pictilisib; first compound 0.2 µM) | relative viability (Vandetanib + Pictilisib; first compound 0.6325 µM) | relative viability (Vandetanib + Pictilisib; first compound 2 µM) | relative viability (CUDC-101 + Pictilisib; first compound 0.01 µM) | relative viability (CUDC-101 + Pictilisib; first compound 0.03162 µM) | relative viability (CUDC-101 + Pictilisib; first compound 0.1 µM) | relative viability (CUDC-101 + Pictilisib; first compound 0.3162 µM) | relative viability (CUDC-101 + Pictilisib; first compound 1 µM) | relative viability ([1]; first compound 0.005 µM) | relative viability ([1]; first compound 0.01581 µM) | relative viability ([1]; first compound 0.05 µM) | relative viability ([1]; first compound 0.1581 µM) | relative viability ([1]; first compound 0.5 µM) | relative viability (CUDC-101 + Trametinib; first compound 0.01 µM) | relative viability (CUDC-101 + Trametinib; first compound 0.03162 µM) | relative viability (CUDC-101 + Trametinib; first compound 0.1 µM) | relative viability (CUDC-101 + Trametinib; first compound 0.3162 µM) | relative viability (CUDC-101 + Trametinib; first compound 1 µM)
HCC-78 | 0.192 | 0.294 | 0.234 | 0.231 | 0.189 | 0.246 | 0.205 | 0.209 | 0.153 | 0.145 | 0.776 | 0.779 | 0.634 | 0.825 | 0.747 | 0.781 | 0.711 | 0.864 | 0.667 | 0.545
HCC-366 | 0.146 | 0.141 | 0.202 | 0.112 | 0.112 | 0.136 | 0.121 | 0.142 | 0.13 | 0.119 | 0.328 | 0.385 | 0.363 | 0.344 | 0.321 | 0.391 | 0.378 | 0.312 | 0.366 | 0.209
HCC-827 | 0.816 | 1.02 | 0.864 | 0.664 | 0.355 | 1.07 | 0.53 | 0.368 | 0.287 | 0.262 | 0.318 | 0.322 | 0.319 | 0.399 | 0.328 | 0.53 | 0.257 | 0.18 | 0.183 | 0.147
HOP-62 | 0.608 | 0.504 | 0.669 | 0.495 | 0.734 | 0.758 | 0.696 | 0.753 | 0.582 | 0.4 | 0.219 | 0.184 | 0.263 | 0.234 | 0.248 | 0.362 | 0.361 | 0.403 | 0.441 | 0.346
IA-LM | 0.349 |  | 0.345 | 0.405 | 0.331 | 0.311 | 0.293 | 0.322 | 0.233 | 0.106 |  |  |  |  |  |  |  |  |  | 
LC-2-ad | 0.503 | 0.4 | 0.167 | 0.324 | 0.19 | 0.421 | 0.601 | 0.549 | 0.301 | 0.104 | 0.698 | 0.819 | 0.818 | 0.827 | 0.726 | 0.929 | 0.913 | 0.912 | 0.823 | 0.773
LCLC-97TM1 | 0.282 | 0.2 | 0.206 | 0.171 | 0.188 | 0.276 | 0.283 | 0.192 | 0.226 | 0.144 | 0.192 | 0.215 | 0.293 | 0.237 | 0.222 | 0.175 | 0.193 | 0.223 | 0.227 | 0.164
LCLC-103H | 0.565 | 0.518 | 0.563 | 0.528 | 0.472 | 0.586 | 0.574 | 0.614 | 0.501 | 0.492 | 0.723 | 0.731 | 0.69 | 0.762 | 0.751 | 0.666 | 0.66 | 0.662 | 0.707 | 0.681
LK-2 | 0.585 | 0.652 | 0.531 | 0.559 | 0.478 | 0.593 | 0.481 | 0.497 | 0.59 | 0.312 | 0.27 | 0.288 | 0.39 | 0.352 | 0.352 | 0.715 | 0.625 | 0.884 | 0.592 | 0.392
LOU-NH91 | 0.528 | 0.565 | 0.508 | 0.524 | 0.515 | 0.578 | 0.523 | 0.564 | 0.473 | 0.433 | 0.85 | 0.822 | 0.765 | 0.818 | 0.8 | 0.804 | 0.727 | 0.738 | 0.831 | 0.738
LU99A | 0.304 | 0.327 | 0.336 | 0.29 | 0.306 | 0.323 | 0.299 | 0.33 | 0.253 | 0.148 | 0.693 | 0.966 |  | 1 | 0.817 | 0.444 | 0.539 | 0.617 | 0.535 | 0.374
LXF-289 | 0.828 | 0.771 | 0.773 | 0.792 | 0.798 | 0.758 | 0.806 | 0.806 | 0.728 | 0.51 | 0.345 | 0.419 | 0.4 | 0.405 | 0.336 | 0.689 | 0.671 | 0.659 | 0.605 | 0.539
NCI-H522 |  |  |  |  |  |  |  |  |  |  | 0.718 | 0.651 | 0.607 | 0.639 | 0.66 | 0.605 | 0.747 | 0.893 | 0.651 | 0.642
NCI-H1299 | 0.788 | 0.677 | 0.906 | 0.674 | 0.604 | 0.978 | 0.839 | 0.766 | 0.653 | 0.412 |  |  |  |  |  |  |  |  |  | 
NCI-H1563 | 0.62 | 0.707 | 0.623 | 0.656 | 0.657 | 0.652 | 0.607 | 0.709 | 0.667 | 0.509 |  |  |  |  |  |  |  |  |  | 
NCI-H1648 |  |  |  |  |  |  |  |  |  |  |  | 0.438 |  | 0.535 | 0.388 | 0.461 | 0.595 | 0.437 | 0.351 | 0.277
NCI-H1703 | 0.244 | 0.217 | 0.212 | 0.211 | 0.231 | 0.228 | 0.252 | 0.244 | 0.293 | 0.299 |  |  |  |  |  |  |  |  |  | 
NCI-H2228 | 0.383 | 0.402 |  | 0.399 | 0.297 | 0.246 | 0.485 | 0.494 | 0.36 | 0.252 |  |  |  |  |  | 0.553 | 0.467 | 0.486 | 0.912 | 0.537
NCI-H2342 |  |  |  |  |  |  |  |  |  |  | 0.727 | 0.844 | 0.694 | 0.837 | 0.71 | 0.789 | 0.947 | 0.814 | 0.819 | 0.777
SW 900 |  |  |  |  |  |  |  |  |  |  | 0.393 | 0.342 | 0.401 | 0.557 | 0.391 | 0.914 | 0.74 | 0.799 | 0.627 | 0.746
